# Results from patent US20060069132A1, “Azolecarboxamide herbicides” (priority 2004, published 2006).
# Columns and labels:
# [1] = system: water seeded rice seedlings; assay: Test D flooded paddy test; type: in vivo, Oryza sativa; details: 21 days, scale 0 to 100
# From the text: (§1) Three plastic pots (ca. 16-cm diameter) per rate were partially filled with sterilized Tama silt loam soil comprising a 35:50:15 ratio of sand, silt and clay and 2.6% organic matter. Separate plantings for each of the three pots were as follows. Seeds from the U.S. of ducksalad (Heteranthera limosa (Sw.) Willd.), smallflower umbrella sedge (Cyperus difformis L.) and purple redstem (Ammannia coccinea Rottb.), were planted into one 16-cm pot for each rate. Seeds from the U.S. of rice flatsedge (Cyperus iria L.), bearded sprangletop (Leptochloa fascicularis (Lam.) Gray), one stand of 9 or 10 water seeded rice seedlings (Oryza sativa L. cv. ‘Japonica—M202’), and one stand of 6 transplanted rice seedlings (Oryza sativa L. cv. ‘Japonica—M202’) were planted into one 16-cm pot for each rate. Seeds from the U.S. of barnyardgrass (Echinochloa crus-galli (L.) Beauv.), late watergrass (Echinochloa oryzicola Vasinger), early watergrass (Echinochloa oryzoides (Ard.) Fritsch) and junglerice (Echinochloa colona (L.) Link) were planted into one 16-cm pot for each rate. Plantings were sequential so that crop and weed species were at the 2.0 to 2.5-leaf stage at time of treatment.
# (§2) Potted plants were grown in a greenhouse with day/night temperature settings of 29.5/26.7° C., and supplemental balanced lighting was provided to maintain a 16-hour photoperiod. Test pots were maintained in the greenhouse until test completion.
# (§3) At time of treatment, test pots were flooded to 3 cm above the soil surface, treated by application of test compounds directly to the paddy water, and then maintained at that water depth for the duration of the test. Effects of treatments on rice and weeds were visually evaluated by comparison to untreated controls after 21 days. Plant response ratings are reported on a 0 to 100 scale; where 0 is no effect and 100 is complete control. A dash (-) response means no test result.
# [2] = system: transplanted rice seedlings; assay: Test D flooded paddy test; type: in vivo, Oryza sativa; details: 21 days, scale 0 to 100
# From the text: as §1, §2, §3
# blackgrass = assay: Test F pre-/postemergence herbicide test; type: in vivo, Alopecurus myosuroides
# From the text: Seeds of plant species selected from annual blugrass (Poa annua L.), blackgrass (Alopecurus myosuroides Huds.), catchweed bedstraw (Gallium aparine L.), common chickweed (Stellaria media (L.) Vill./Cyr.), downy bromegrass (Bromus tectorum L.), green foxtail (Setaria viridis (L.) Beauv.), Italian ryegrass (Lolium multiflorum Lam.), kochia (Kochia scoparia (L.). Schrad.), lambsquarters (Chenopodium album L.), littleseed canarygrass (Phalaris minor Retz.), pigweed (Amaranthus retroflexus L.), Russian thistle (Salsola kali L. ssp. Ruthenica (Iljin) Soo), wild buckwheat (Polygonum convolvulus L.), wild mustard (Sinapis arvensis L.), wild oat (Avena fatua L.), windgrass (Apera spica-venti (L.) Beauv.), winter barley (Hordeum vulgare L.), and wheat (Triticum aestivum L.) were planted and treated preemergence with test chemicals formulated in a non-phytotoxic solvent mixture which included a surfactant.
# At the same time, plants selected from these crop and weed species were treated with postemergence applications of some of the test chemicals formulated in the same manner. Plants ranged in height from 2 to 18 cm (1- to 4-leaf stage) for postemergence treatments. Treated plants and controls were maintained in a greenhouse for 12 to 14 days, after which time all species were compared to controls and visually evaluated. Plant response ratings, summarized in Table F, are based on a scale of 0 to 100 where 0 is no effect and 100 is complete control. A dash (-) response means no test result.
# lambsquarters (CHEAL) = assay: Test J Compounds 2 and 6 alone and in combination with other herbicides, foliage spray; type: in vivo, Chenopodium album; parameters: key: % herbicidal effect (observed); details: applied alone
# From the text: Colby's Equation was used to calculate the expected additive herbicidal effect of the mixtures of Compound 6 with Harmony® Extra (i.e. a 2:1 mixture by weight of thifensulfuron-methyl and tribenuron-methyl). […]
# Seeds of test plants consisting of barnyardgrass (ECHCG; Echinochloa crus-galli (L.) Beauv.), blackgrass (ALOMY; Alopecurus myosuroides Huds.), Surinam grass (BRADC; Urochloa decumbens (Staph) R. D. Webster, previously named Brachiaria decumbens Stapf), cocklebur (XANST, Xanthium strumarium L.), corn (ZEAMD, Zea mays L. cv. ‘Pioneer 33G26’), large crabgrass (DIGSA, Digitaria sanguinalis (L.) Scop.), giant foxtail (SETFA, Setaria faberi Herrm.), lambsquarters (CHEAL, Chenopodium album L.), morningglory (IPOCO, Ipomoea coccinea L.), pigweed (AMARE, Amaranthus retroflexus L.), velvetleaf (ABUTH, Abutilon theophrasti Medik.) wheat (TRZAS, Triticum aestivum L. cv. ‘Recital’) and wild oat (AVEFA, Avena fatua L.) were planted in Redi-Earth® planting medium (Scotts Company, 14111 Scottslawn Road, Marysville, Ohio 43041) comprising spaghnum peat moss and vermiculite. […] Also listed in Table J are the expected effects for the mixtures calculated using Colby's Equation.
smiles,measurement,setting,value
CCNC(=O)c1ccnc(NC(=O)c2cc(C(C)(C)C)nn2CC)c1 [Compound 152],"Plant response rating, Rice, Water Seeded",[1]; 8 g ai/ha,0
same,"Plant response rating, Rice, Water Seeded",[1]; 16 g ai/ha,20
same,"Plant response rating, Rice, Water Seeded",[1]; 32 g ai/ha,30
same,"Plant response rating, Rice, Water Seeded",[1]; 64 g ai/ha,40
same,"Plant response rating, Rice, Water Seeded",[1]; 125 g ai/ha,45
same,"Plant response rating, Rice, Transplanted",[2]; 8 g ai/ha,0
same,"Plant response rating, Rice, Transplanted",[2]; 16 g ai/ha,20
same,"Plant response rating, Rice, Transplanted",[2]; 32 g ai/ha,25
same,"Plant response rating, Rice, Transplanted",[2]; 64 g ai/ha,40
same,"Plant response rating, Rice, Transplanted",[2]; 125 g ai/ha,45
CCn1nc(C(C)(C)C)cc1C(=O)Nc1cc(C(=O)OC(C)C)c(F)cc1F [Compound 248],"Plant response rating (0-100), Blackgrass","blackgrass; Postemergence, 31 g ai/ha",45
same,"Plant response rating (0-100), Blackgrass","blackgrass; Postemergence, 62 g ai/ha",50
same,"Plant response rating (0-100), Blackgrass","blackgrass; Postemergence, 125 g ai/ha",60
same,"Plant response rating (0-100), Blackgrass","blackgrass; Postemergence, 250 g ai/ha",60
same,"Plant response rating (0-100), Blackgrass","blackgrass; Preemergence, 31 g ai/ha",50
same,"Plant response rating (0-100), Blackgrass","blackgrass; Preemergence, 62 g ai/ha",50
same,"Plant response rating (0-100), Blackgrass","blackgrass; Preemergence, 125 g ai/ha",65
same,"Plant response rating (0-100), Blackgrass","blackgrass; Preemergence, 250 g ai/ha",65
"CCn1nc(C(C)(C)C)cc1C(=O)Nc1cc(C(=O)N(C)C)ccc1F [Compound 6, N-[5-[(dimethylamino)carbonyl]-2-fluorophenyl]-3-(1,1-dimethylethyl)-1-ethyl-1H-pyrazole-5-carboxamide]",CHEAL Obsd.,lambsquarters (CHEAL); 62 g a.i./ha,43
same,CHEAL Obsd.,lambsquarters (CHEAL); 125 g a.i./ha,68
CCc1nc(C(C)(C)C)sc1C(=O)Nc1cccc(C(=O)NCC2CC2)n1 [Compound 215],"Plant response rating, Rice, Water Seeded",[1]; 125 g ai/ha,20
same,"Plant response rating, Rice, Water Seeded",[1]; 250 g ai/ha,35
same,"Plant response rating, Rice, Water Seeded",[1]; 500 g ai/ha,45
same,"Plant response rating, Rice, Water Seeded",[1]; 750 g ai/ha,45
same,"Plant response rating, Rice, Water Seeded",[1]; 1000 g ai/ha,45
same,"Plant response rating, Rice, Transplanted",[2]; 125 g ai/ha,0
same,"Plant response rating, Rice, Transplanted",[2]; 250 g ai/ha,10
same,"Plant response rating, Rice, Transplanted",[2]; 500 g ai/ha,20
same,"Plant response rating, Rice, Transplanted",[2]; 750 g ai/ha,20
same,"Plant response rating, Rice, Transplanted",[2]; 1000 g ai/ha,35
